From patent publication US11679111B2, “Fatty acid synthase inhibitors” (priority 2016, dated 2023)
Where two headings read alike, the source gives them in different places.

Columns and labels:
BT474 cells = experiment: Acetate and glucose incorporation into lipids in HER2+ BT474 breast cancer cell line; format: cell-based; conditions: Homo sapiens
Procedure: Incorporation of radiolabeled glucose or acetate in total lipids was measured according to published methods (Haystead and Hardie, 1986). HepG2 cells (80% confluent in 12 wells plates) were starved overnight in MEM Alpha, the medium was then changed with DMEM medium containing 0.1 g/L glucose 10% FBS and 5 μM insulin and 1 μCi 3-[^3H] D-glucose or 1 μCi [^3H]-acetate in addition to different concentrations of each compound. After incubation for 1 hour at 37° C., 5% CO2, the cells were washed with ice cold PBS and detached by treating with 100 μl trypsin for 10 min then 1 ml of ice cold PBS was added. The cells suspension was then sonicated for 3 times in 30 seconds intervals and kept on ice. From each well 1 ml of cell lysate was added to a 4 ml scintillation vial and 2 ml of MicroScint-E was added. The vials were mixed thoroughly then centrifuged for 30 min at 3000 rpm and the ^3H radioactivity was measured by liquid scintillation counting.
T474 cells were seeded in 6 well plates in 10% FBS 4.5 g/L glucose DMEM at a density of 400,000 cells/well. After 24 hours the media was changed with 0.1 g/L glucose DMEM containing different concentrations of HS-106. […] To each fraction, 1 ml of 25 g/L Butyl PBD dissolved in Toluene was added and radioactivity was measured by scintillation counting.

human FASN = biological target: T1, human FASN (Homo sapiens, UniProt P49327); experiment: FASN activity assay, 2-[14C] malonyl CoA incorporation into lipids by purified enzyme; format: biochemical
T1 construct: endogenous in cells; host or cells: BT474 cells; endogenous enzyme purified by ammonium sulfate cuts and Sephacryl S-300 gel filtration, about 85% pure
T1 sequence (P49327 whole entry): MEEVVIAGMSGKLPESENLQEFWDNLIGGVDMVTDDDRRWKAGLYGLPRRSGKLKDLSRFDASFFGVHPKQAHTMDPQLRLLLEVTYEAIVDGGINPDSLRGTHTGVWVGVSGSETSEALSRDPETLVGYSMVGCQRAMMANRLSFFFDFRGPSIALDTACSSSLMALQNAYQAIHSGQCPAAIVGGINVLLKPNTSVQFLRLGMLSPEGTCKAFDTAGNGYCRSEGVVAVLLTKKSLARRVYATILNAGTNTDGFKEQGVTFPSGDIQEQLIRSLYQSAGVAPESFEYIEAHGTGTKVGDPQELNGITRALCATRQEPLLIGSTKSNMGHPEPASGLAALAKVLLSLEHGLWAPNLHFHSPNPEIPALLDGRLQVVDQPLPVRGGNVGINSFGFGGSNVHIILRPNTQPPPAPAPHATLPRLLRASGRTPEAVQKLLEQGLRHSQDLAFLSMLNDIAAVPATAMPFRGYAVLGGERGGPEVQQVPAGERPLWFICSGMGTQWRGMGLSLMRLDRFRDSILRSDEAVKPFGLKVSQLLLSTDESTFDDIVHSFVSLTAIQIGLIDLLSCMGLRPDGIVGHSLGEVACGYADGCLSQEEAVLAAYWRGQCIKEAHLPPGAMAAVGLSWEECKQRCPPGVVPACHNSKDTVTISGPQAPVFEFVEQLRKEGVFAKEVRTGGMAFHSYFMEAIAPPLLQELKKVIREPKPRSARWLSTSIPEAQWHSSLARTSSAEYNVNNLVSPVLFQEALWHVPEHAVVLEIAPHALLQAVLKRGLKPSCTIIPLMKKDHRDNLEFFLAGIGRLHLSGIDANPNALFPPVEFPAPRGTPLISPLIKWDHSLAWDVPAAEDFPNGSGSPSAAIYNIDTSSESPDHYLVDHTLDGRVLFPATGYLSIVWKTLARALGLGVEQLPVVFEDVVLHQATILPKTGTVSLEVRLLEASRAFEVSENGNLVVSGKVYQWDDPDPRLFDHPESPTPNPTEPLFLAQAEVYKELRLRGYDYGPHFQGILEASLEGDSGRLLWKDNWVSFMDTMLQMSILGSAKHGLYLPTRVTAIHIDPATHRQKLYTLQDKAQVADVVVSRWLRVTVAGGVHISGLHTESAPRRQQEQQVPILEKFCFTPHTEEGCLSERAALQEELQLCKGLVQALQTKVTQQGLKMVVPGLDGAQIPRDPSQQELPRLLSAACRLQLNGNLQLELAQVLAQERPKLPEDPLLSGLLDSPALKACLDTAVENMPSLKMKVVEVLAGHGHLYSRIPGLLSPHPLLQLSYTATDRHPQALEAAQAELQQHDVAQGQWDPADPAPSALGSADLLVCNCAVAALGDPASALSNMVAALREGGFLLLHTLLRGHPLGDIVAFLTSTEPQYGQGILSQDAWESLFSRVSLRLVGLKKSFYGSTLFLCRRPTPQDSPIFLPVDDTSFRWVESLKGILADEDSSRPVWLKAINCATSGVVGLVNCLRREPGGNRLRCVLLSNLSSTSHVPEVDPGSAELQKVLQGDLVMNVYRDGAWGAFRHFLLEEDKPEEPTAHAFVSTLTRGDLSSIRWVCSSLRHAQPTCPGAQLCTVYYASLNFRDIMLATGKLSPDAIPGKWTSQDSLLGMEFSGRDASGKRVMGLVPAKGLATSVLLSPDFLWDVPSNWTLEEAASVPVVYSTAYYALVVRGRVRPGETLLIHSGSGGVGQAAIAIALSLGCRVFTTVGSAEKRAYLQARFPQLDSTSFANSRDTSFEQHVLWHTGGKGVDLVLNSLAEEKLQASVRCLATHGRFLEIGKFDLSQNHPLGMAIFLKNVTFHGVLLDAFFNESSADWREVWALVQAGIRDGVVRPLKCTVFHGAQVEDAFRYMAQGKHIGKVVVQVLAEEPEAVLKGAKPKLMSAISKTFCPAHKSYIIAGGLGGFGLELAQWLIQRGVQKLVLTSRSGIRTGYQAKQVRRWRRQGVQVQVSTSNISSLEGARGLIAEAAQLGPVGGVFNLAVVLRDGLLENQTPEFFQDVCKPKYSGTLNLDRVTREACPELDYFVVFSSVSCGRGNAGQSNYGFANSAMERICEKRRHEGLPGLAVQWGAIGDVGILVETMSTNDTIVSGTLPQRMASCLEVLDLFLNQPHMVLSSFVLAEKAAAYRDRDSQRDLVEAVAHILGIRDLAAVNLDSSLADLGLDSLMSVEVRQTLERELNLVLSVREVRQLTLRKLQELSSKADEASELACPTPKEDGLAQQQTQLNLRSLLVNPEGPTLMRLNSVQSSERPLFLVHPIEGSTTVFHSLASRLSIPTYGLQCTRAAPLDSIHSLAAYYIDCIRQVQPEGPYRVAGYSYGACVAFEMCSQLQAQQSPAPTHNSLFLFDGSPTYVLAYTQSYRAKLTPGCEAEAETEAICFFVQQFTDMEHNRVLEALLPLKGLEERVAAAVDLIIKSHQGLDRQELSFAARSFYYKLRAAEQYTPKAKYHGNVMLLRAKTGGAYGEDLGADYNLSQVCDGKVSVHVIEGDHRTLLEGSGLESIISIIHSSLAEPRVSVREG
Procedure: Human FASN activity was measured by monitoring the incorporation of 2-[^14C] malonyl CoA into fatty acids using liquid scintillation counting by a method similar to the one described by Richardson et al (Richardson and Smith, 2007). FASN (10 μg/ml of PBS containing 1 mM DTT and 1 mM EDTA) was pre-incubated with different concentrations of HS-106 (final DMSO concentration 1%) at 37° C. for 30 minutes, then substrates were added (20 μM acetyl CoA and 200 μM NADPH) in a total reaction volume of 100 μl. The reaction was initiated by adding 10 μl of 50 μM malonyl CoA spiked with 0.05 μCi of 2-[^14C] malonyl CoA. After incubation for 30 minutes at 37° C., lipids were extracted 3 times with 150 μl (2:1, v/v) chloroform:methanol. Then, to the pooled organic phases, 1 ml of toluene containing 25 g/L Butyl-PBD was added and radioactivity was measured by liquid scintillation counting.
Confluent BT474 cells grown in high glucose DMEM with 10% FBS, were scraped and washed two times with ice cold PBS. […]
Human FASN activity was measured by monitoring the incorporation of 2-[^14C] […] Then, to the pooled organic phase, 1 ml of Toluene containing […] Butyl PBD was added and radioactivity was measured by scintillation counting. […]

`Cc1sc2ncnc(NC3CCN(Cc4ccccc4)C3)c2c1C` (racemic) [HS-106, N-(1-benzylpyrrolidin-3-yI)-5,6-dimethylthieno[2,3-d]pyrimidin-4-amine] was tested, and the IC50 (BT474 cells; BT-474, acetate as tracer, read-out: IC50, acetate incorporation into total lipids) was about 1500 nM, the IC50 (BT474 cells; BT-474, glucose as tracer, read-out: IC50, glucose incorporation into total lipids) was 1660 nM and the IC50 (human FASN) was 3710 nM. It also gave an IC50 (human FASN; FIG. 2E, read-out: IC50, native human FASN (purified)) of 46 nM.
